Among the test systems are UACC-62 melanoma; SNB-19 CNS; HCT-116 colon; SF-539 CNS; UACC-257 melanoma; ACHN renal; OVCAR-5 ovarian; NCI-H522 lung; MDA-MB-435.
Holding throughout (assay): NCI-60 cell line screen, 48 h

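Compound exposure: 48 hours, 5 concentrations, 96-well plates. GI50 marks 50% less growth. Definition used: TGI = concentration required for complete inhibition of growth.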 A value given as a limit tells only on which side of the number the result lay.

For the compound `O=C1CCCC/C1=C/C=C/c1ccccc1`, the TGI with UACC-62 melanoma, with SNB-19 CNS, in the assay on HCT-116 colon, with SF-539 CNS, in the assay on UACC-257 melanoma and in the assay on ACHN renal was > 100 µM each time. Further, the TGI with OVCAR-5 ovarian is > 100 µM; in the assay on NCI-H522 lung, 61.2 µM.

Consider `COC(=O)CCC(=O)c1c(C)[nH]c(/C=C2\N=C(c3ccc[nH]3)C=C2OC)c1C`, for which the GI50 in the assay with UACC-62 melanoma was 1.37 µM; in the assay on SNB-19 CNS it was 3.2 µM; with HCT-116 colon it was 0.257 µM; in the assay with SF-539 CNS, 1.18 µM; in the assay with UACC-257 melanoma it was 2.27 µM; with ACHN renal it was 0.783 µM. Further, the GI50 in the assay on OVCAR-5 ovarian was 1.48 µM; in the assay on NCI-H522 lung, 1.13 µM; in the assay with MDA-MB-435, 0.426 µM. The TGI was 3.49 µM in the assay on UACC-62 melanoma; 14.2 µM with SNB-19 CNS; 3.03 µM in the assay on SF-539 CNS; 6.37 µM in the assay on UACC-257 melanoma; 4.18 µM in the assay on ACHN renal; 5.52 µM in the assay on OVCAR-5 ovarian. For the same compound, the TGI in the assay with NCI-H522 lung turned out to be 2.86 µM; with MDA-MB-435, 1.63 µM.

For `CN(C)CCn1c2ccccc2c2nc3cc4ccccc4cc3nc21`, the TGI amounted to 21.1 µM with UACC-62 melanoma; 27.7 µM in the assay with SNB-19 CNS; 16.9 µM in the assay on HCT-116 colon; 11.1 µM in the assay on ACHN renal; 21.7 µM with NCI-H522 lung.

As for `O=c1cc(Cl)nc[nH]1`, the TGI with UACC-62 melanoma, in the assay with SNB-19 CNS, in the assay with HCT-116 colon, in the assay on UACC-257 melanoma, with ACHN renal and with OVCAR-5 ovarian was > 100 µM each time. For the same compound, the TGI in the assay on NCI-H522 lung is > 100 µM.

Consider `CCCN(CCC)c1ccc(CO)c(C)c1`, for which the GI50 is 22.8 µM with UACC-62 melanoma; > 100 µM with SNB-19 CNS; 26.9 µM in the assay with HCT-116 colon; > 100 µM in the assay with SF-539 CNS; 11.6 µM in the assay with UACC-257 melanoma; 81 µM with ACHN renal. For the same compound, the values for the GI50 with OVCAR-5 ovarian, in the assay on NCI-H522 lung and with MDA-MB-435 were 13.1 µM, 19.3 µM and 76.8 µM, respectively. Also, the TGI was > 100 µM in the assay on UACC-62 melanoma; > 100 µM with SNB-19 CNS; > 100 µM with HCT-116 colon; > 100 µM in the assay with SF-539 CNS; 67.3 µM in the assay on UACC-257 melanoma; > 100 µM in the assay with ACHN renal. Further, the TGI in the assay on OVCAR-5 ovarian is 44.2 µM; with NCI-H522 lung it was 60.5 µM; in the assay with MDA-MB-435 it was > 100 µM.

As for `O=c1ccccc2cccc(O)c12`, the TGI in the assay with UACC-62 melanoma, with SNB-19 CNS, with HCT-116 colon, in the assay with SF-539 CNS, in the assay on UACC-257 melanoma and with ACHN renal was > 100 µM each time.

For `COc1ccc2c(c1)CC[C@@H]1[C@@H]2CC[C@@]2(C)[C@H]1CC1(CCCCC1)[C@@H]2O`, the GI50 is 16.4 µM in the assay on UACC-62 melanoma; 18 µM in the assay on SNB-19 CNS; 12.3 µM in the assay on HCT-116 colon; 4.22 µM with SF-539 CNS; 23.6 µM with UACC-257 melanoma; 14.7 µM in the assay on ACHN renal. In addition, the GI50 in the assay on OVCAR-5 ovarian is 13.1 µM; in the assay with NCI-H522 lung it was 17.9 µM; in the assay on MDA-MB-435, 16.5 µM. Moreover, the TGI stood at 31.6 µM with UACC-62 melanoma; 40.7 µM in the assay on SNB-19 CNS; 26.4 µM in the assay with HCT-116 colon; 16.6 µM in the assay on SF-539 CNS; 47.2 µM in the assay on UACC-257 melanoma; 28.2 µM in the assay on ACHN renal. For the same compound, the TGI with OVCAR-5 ovarian came out at 28.3 µM; in the assay on NCI-H522 lung it was 36.6 µM; with MDA-MB-435 it was 33.8 µM.

With `C(=C\c1csnn1)/c1cccnc1`, the TGI in the assay on SNB-19 CNS, in the assay with HCT-116 colon, in the assay with SF-539 CNS, in the assay with UACC-257 melanoma, in the assay on ACHN renal and in the assay on OVCAR-5 ovarian was > 100 µM each time. In the assay with NCI-H522 lung, the TGI is > 100 µM.

`CC1=CC(C)(C)N=C2SC(c3ccc(Cl)cc3)=NN12`: the TGI with UACC-62 melanoma was > 100 µM; in the assay on SNB-19 CNS, > 100 µM; with SF-539 CNS, > 100 µM; in the assay with UACC-257 melanoma, > 100 µM; in the assay with ACHN renal it was > 100 µM; in the assay on OVCAR-5 ovarian, 53.7 µM. In the assay with NCI-H522 lung, this compound had a TGI of 46.4 µM.

In the case of `COc1ccc(C(c2ccc(C(C)C)cc(=O)c2O)c2c(O)cc3oc(-c4ccccc4)cc(=O)c3c2O)cc1` (stereo not given), the TGI with UACC-62 melanoma worked out at 42.9 µM; in the assay with SNB-19 CNS, 16.7 µM; in the assay on SF-539 CNS it was 21.5 µM; with UACC-257 melanoma it was 72.4 µM; with ACHN renal it was 45.6 µM.

Regarding `Cc1cc(NS(=O)(=O)c2ccc(NC(=O)c3cccc4c(N)c5ccccc5nc34)cc2)no1`, the TGI in the assay with UACC-62 melanoma was 57.7 µM; in the assay with SNB-19 CNS it was 34 µM; with HCT-116 colon, 27.6 µM; in the assay with SF-539 CNS, 47.6 µM; with ACHN renal, 46.6 µM; in the assay with OVCAR-5 ovarian, > 100 µM. The TGI in the assay on NCI-H522 lung was determined as 33.9 µM.

Consider `CN1CCN(c2ccc3c4c(cccc24)C(=O)N(CCN2CCN(CCCN4CCN(CCN5C(=O)c6cccc7c(N8CCN(C)CC8)ccc(c67)C5=O)CC4)CC2)C3=O)CC1`, for which the GI50 in the assay on UACC-62 melanoma is 8.45 µM; in the assay on SNB-19 CNS, 7.03 µM; with HCT-116 colon, 1.23 µM; in the assay on SF-539 CNS it was 7.67 µM; with UACC-257 melanoma it was 10.2 µM; in the assay with ACHN renal, 3.13 µM. The GI50 in the assay with OVCAR-5 ovarian is 5.79 µM; with MDA-MB-435, 7.34 µM. In addition, the TGI was found to be 15.7 µM with UACC-62 melanoma; 16.2 µM in the assay on SNB-19 CNS; 5.79 µM in the assay with HCT-116 colon; 16.9 µM in the assay with SF-539 CNS; 18.4 µM in the assay on UACC-257 melanoma; 9.72 µM with ACHN renal. For the same compound, the TGI amounted to 11.9 µM with OVCAR-5 ovarian and 15.5 µM in the assay with MDA-MB-435.

As to `CC(=O)O[C@@H]1CO[C@H]2O[C@H]3[C@@H](C(C=O)=C[C@H](O)[C@@H]4C5=C(C(C)C)CC[C@]5(C)CC[C@@]34C)[C@@]2(O)C1=O`, the TGI with UACC-62 melanoma is 1.06 µM; in the assay with SNB-19 CNS, 1.97 µM; in the assay on HCT-116 colon, 0.27 µM; in the assay on SF-539 CNS it was 0.37 µM; with UACC-257 melanoma it was 0.629 µM; in the assay on ACHN renal it was 0.281 µM. Moreover, the TGI was found to be 1.12 µM in the assay on OVCAR-5 ovarian, 0.24 µM in the assay with NCI-H522 lung and 0.393 µM in the assay with MDA-MB-435.

These data come from PubChem BioAssay (NCI).
